Where no end group is shown, it is not given here.
How the values were obtained:
[1] = test system: NKG2A−/NKG2C− NK cells; experiment: NK cell activation markers in control NKG2A-/NKG2C- NK cells incubated with peptide and K562 expressing HLA-E; format: cell-based, human
Procedure, shortened: (§1)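 Human myelogenous leukemia K562 cells displaying HLA-E carry the test peptides (human or HCMV origin) and are presented to NK cells; surface activation markers are scored by percent positive cells.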

[2] = test system: NKG2A−/NKG2C+ NK cells; experiment: NK cell activation markers in NKG2A-/NKG2C+ NK cells incubated with peptide and K562 expressing HLA-E (activation); format: cell-based, human; conditions: for effect on NKG2A−/NKG2C+ NK cell activation (in words): K562 expressing HLA-E, CD107a, IFNG, TNF, CCL3; for percentage of CCL3+ NK cells / percentage of CD107+ NK cells / percentage of IFNG+ NK cells / percentage of TNF+ NK cells: NKG2A-/NKG2C+ NK cells, K562/HLA-E
Procedure, shortened: as §1

[3] = molecular target: CD94/NKG2A (Homo sapiens, UniProt P26715+Q13241); experiment: Steady-state surface plasmon resonance of peptide-HLA-E complex with CD94/NKG2A; format: binding; conditions: for Binding of peptide-HLA-E complexes to CD94/NKG2A normalized to a theoretical Rmax: steady-state SPR
Protocol: (§2) Binding affinity of novel peptides linked to HLA-E was determined using surface plasmon resonance (SPR), a methodology used to study protein-protein interactions (Tables 15-19). The peptide-HLA-E complex (generated as a single chain trimer) was immobilized on the sensor chip surface and CD94/NKG2A or CD94/NKG2C were flowed over. Steady-state surface plasmon resonance experiments were performed with a Biacore T200 instrument. CD94/NKG2x in HBS-EP+ buffer was injected as analyte in a concentration range of 0.1 μM to 102.4 μM and flow rate of 10 μL/min at 25° C. Data was fit with Prism 9.4 (GraphPad Software Inc; San Diego CA) to a “one site, specific binding” model. Series S CM5 chips were coupled to neutravidin and utilized. Biotinylated pMHC was immobilized at approximately 400 RU. KD values calculated by Biacore software are reported. Rmax, fit values were calculated by Biacore software. Rmax, theoretical values were calculated using the analyte/ligand mass ratio (0.66) multiplied by the amount of ligand coupled to the chip.

[4] = molecular target: CD94/NKG2C (Homo sapiens, UniProt P26717+Q13241); experiment: Steady-state surface plasmon resonance of peptide-HLA-E complex with CD94/NKG2C; format: binding; conditions: for Binding of peptide-HLA-E complexes to CD94/NKG2C normalized to a theoretical Rmax: steady-state SPR
Protocol: as §2

[5] = molecular target: T1, HLA-E (Homo sapiens, UniProt P13747); experiment: HLA-E surface stabilization assay with RMA-S/HLA-E cells; format: cell-based; conditions: 30 μM peptide, 16 hours; for HLA-E surface expression stability (GeoMFI): anti-HLA-E antibody
T1 construct: expressed in transfected cells; host or cells: RMA-S/HLA-E cells (antigen processing-defective lymphoma cell line)
Protocol: HLA-E surface expression was assessed by measuring geometric mean fluorescence intensity (GeoMFI) in RMA-S cells following immunofluorescence staining with an anti-HLA-E antibody (Table 14). Increased GeoMFI was indicative of increased HLA-E surface expression stability following novel peptide exposures (FIG. 3).

Sequence of CD94/NKG2C (P26717 94-231 limits assumed): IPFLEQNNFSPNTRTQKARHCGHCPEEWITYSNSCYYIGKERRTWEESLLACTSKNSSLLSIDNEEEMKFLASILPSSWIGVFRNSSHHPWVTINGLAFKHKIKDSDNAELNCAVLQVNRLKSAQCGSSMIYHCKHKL
Sequence of CD94/NKG2C (Q13241 32-179 limits assumed): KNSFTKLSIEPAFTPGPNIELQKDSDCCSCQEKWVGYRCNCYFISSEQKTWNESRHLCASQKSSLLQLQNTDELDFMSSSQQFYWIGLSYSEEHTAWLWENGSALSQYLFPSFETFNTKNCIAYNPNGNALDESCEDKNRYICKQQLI
T1 sequence (P13747 22-358): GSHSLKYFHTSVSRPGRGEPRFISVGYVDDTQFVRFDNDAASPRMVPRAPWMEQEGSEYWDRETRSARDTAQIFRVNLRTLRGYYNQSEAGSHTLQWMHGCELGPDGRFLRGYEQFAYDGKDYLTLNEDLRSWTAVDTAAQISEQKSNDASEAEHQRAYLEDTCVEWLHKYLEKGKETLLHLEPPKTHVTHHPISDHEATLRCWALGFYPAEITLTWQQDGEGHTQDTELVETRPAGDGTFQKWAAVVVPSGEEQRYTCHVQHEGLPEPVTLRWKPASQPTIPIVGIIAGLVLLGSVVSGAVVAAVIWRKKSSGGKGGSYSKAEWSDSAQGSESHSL
T1 sequence (P61769 21-119 partner): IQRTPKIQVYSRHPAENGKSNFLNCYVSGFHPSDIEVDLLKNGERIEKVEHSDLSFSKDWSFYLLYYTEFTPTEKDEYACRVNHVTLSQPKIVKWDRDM
Sequence of CD94/NKG2A (P26715 94-233 limits assumed): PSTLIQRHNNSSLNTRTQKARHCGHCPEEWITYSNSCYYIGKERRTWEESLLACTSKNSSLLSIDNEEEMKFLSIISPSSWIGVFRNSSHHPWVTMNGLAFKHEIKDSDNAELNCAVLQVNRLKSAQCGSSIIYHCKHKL
Sequence of CD94/NKG2A (Q13241 32-179 limits assumed): as the sequence (Q13241 32-179 limits assumed) above

## QMPSRSLLF [human1, QMPSRSLLF]
[1]; Trial 1
  percentage CCL3+ NK cells: 37%
  percentage CD107+ NK cells: 25.1%
  percentage TNF+ NK cells: 4.84%
  percentage of IFNG+ NK cells: 16.2%
[1]; Trial 2
  percentage CCL3+ NK cells: 59.6%
  percentage CD107+ NK cells: 37.6%
  percentage TNF+ NK cells: 11.3%
  percentage of IFNG+ NK cells: 29.3%
[1]; Trial 3
  percentage CCL3+ NK cells: 51.3%
  percentage CD107+ NK cells: 47.2%
  percentage TNF+ NK cells: 19%
  percentage of IFNG+ NK cells: 38.5%
[1]; Trial 4
  percentage CCL3+ NK cells: 33.1%
  percentage CD107+ NK cells: 29.5%
  percentage TNF+ NK cells: 9.26%
  percentage of IFNG+ NK cells: 18.6%
[1]; Trial 5
  percentage CCL3+ NK cells: 26%
  percentage CD107+ NK cells: 19.8%
  percentage TNF+ NK cells: 6.91%
  percentage of IFNG+ NK cells: 15.9%
[1]; Trial 6
  percentage CCL3+ NK cells: 24.1%
  percentage CD107+ NK cells: 18.8%
  percentage TNF+ NK cells: 3.78%
  percentage of IFNG+ NK cells: 7.82%
[2]; listed as SEQ ID NO. 7
  effect on NKG2A−/NKG2C+ NK cell activation (in words): strong activating effects
[2]; listed as h1
  effect on NKG2A−/NKG2C+ NK cell activation (in words): strong inhibitory and activating effects
[2]; Trial 1
  percentage of CCL3+ NK cells: 78.3%
  percentage of CD107+ NK cells: 74.8%
  percentage of IFNG+ NK cells: 62.6%
  percentage of TNF+ NK cells: 51.1%
[2]; Trial 2
  percentage of CCL3+ NK cells: 91.5%
  percentage of CD107+ NK cells: 87.4%
  percentage of IFNG+ NK cells: 84.1%
  percentage of TNF+ NK cells: 75.2%
[2]; Trial 3
  percentage of CCL3+ NK cells: 86.6%
  percentage of CD107+ NK cells: 87%
  percentage of IFNG+ NK cells: 80.5%
  percentage of TNF+ NK cells: 72.9%
[2]; Trial 4
  percentage of CCL3+ NK cells: 68.1%
  percentage of CD107+ NK cells: 68.2%
  percentage of IFNG+ NK cells: 58.1%
  percentage of TNF+ NK cells: 51.6%
[2]; Trial 5
  percentage of CCL3+ NK cells: 79.1%
  percentage of CD107+ NK cells: 75.8%
  percentage of IFNG+ NK cells: 66.9%
  percentage of TNF+ NK cells: 64%
[2]; Trial 6
  percentage of CCL3+ NK cells: 61.1%
  percentage of CD107+ NK cells: 57.6%
  percentage of IFNG+ NK cells: 46.7%
  percentage of TNF+ NK cells: 38.8%
[3]; CD94/NKG2A concentration 0 μM
  binding of peptide-HLA-E complex to CD94/NKG2A normalized to a fitted Rmax: −0.006
[3]; CD94/NKG2A concentration 0.1 μM
  binding of peptide-HLA-E complex to CD94/NKG2A normalized to a fitted Rmax: 0.035
[3]; CD94/NKG2A concentration 0.2 μM
  binding of peptide-HLA-E complex to CD94/NKG2A normalized to a fitted Rmax: 0.068
[3]; CD94/NKG2A concentration 0.4 μM
  binding of peptide-HLA-E complex to CD94/NKG2A normalized to a fitted Rmax: 0.128
[3]; CD94/NKG2A concentration 0.8 μM
  binding of peptide-HLA-E complex to CD94/NKG2A normalized to a fitted Rmax: 0.221
[3]; CD94/NKG2A concentration 1.6 μM
  binding of peptide-HLA-E complex to CD94/NKG2A normalized to a fitted Rmax: 0.349
[3]; CD94/NKG2A concentration 3.2 μM
  binding of peptide-HLA-E complex to CD94/NKG2A normalized to a fitted Rmax: 0.506
[3]; CD94/NKG2A concentration 6.4 μM
  binding of peptide-HLA-E complex to CD94/NKG2A normalized to a fitted Rmax: 0.664
[3]; CD94/NKG2A concentration 12.8 μM
  binding of peptide-HLA-E complex to CD94/NKG2A normalized to a fitted Rmax: 0.798
[3]; CD94/NKG2A concentration 25.6 μM
  binding of peptide-HLA-E complex to CD94/NKG2A normalized to a fitted Rmax: 0.896
[3]; CD94/NKG2A concentration 51.2 μM
  binding of peptide-HLA-E complex to CD94/NKG2A normalized to a fitted Rmax: 0.950
[3]; CD94/NKG2A concentration 102.4 μM
  binding of peptide-HLA-E complex to CD94/NKG2A normalized to a fitted Rmax: 0.996
[3]; CD94/NKG2A analyte concentration 0.000 μM
  Binding of peptide-HLA-E complexes to CD94/NKG2A normalized to a theoretical Rmax: −0.005
[3]; CD94/NKG2A analyte concentration 0.100 μM
  Binding of peptide-HLA-E complexes to CD94/NKG2A normalized to a theoretical Rmax: 0.025
[3]; CD94/NKG2A analyte concentration 0.200 μM
  Binding of peptide-HLA-E complexes to CD94/NKG2A normalized to a theoretical Rmax: 0.049
[3]; CD94/NKG2A analyte concentration 0.400 μM
  Binding of peptide-HLA-E complexes to CD94/NKG2A normalized to a theoretical Rmax: 0.093
[3]; CD94/NKG2A analyte concentration 0.800 μM
  Binding of peptide-HLA-E complexes to CD94/NKG2A normalized to a theoretical Rmax: 0.160
[3]; CD94/NKG2A analyte concentration 1.600 μM
  Binding of peptide-HLA-E complexes to CD94/NKG2A normalized to a theoretical Rmax: 0.252
[3]; CD94/NKG2A analyte concentration 3.200 μM
  Binding of peptide-HLA-E complexes to CD94/NKG2A normalized to a theoretical Rmax: 0.365
[3]; CD94/NKG2A analyte concentration 6.400 μM
  Binding of peptide-HLA-E complexes to CD94/NKG2A normalized to a theoretical Rmax: 0.479
[3]; CD94/NKG2A analyte concentration 12.800 μM
  Binding of peptide-HLA-E complexes to CD94/NKG2A normalized to a theoretical Rmax: 0.577
[3]; CD94/NKG2A analyte concentration 25.600 μM
  Binding of peptide-HLA-E complexes to CD94/NKG2A normalized to a theoretical Rmax: 0.647
[3]; CD94/NKG2A analyte concentration 51.200 μM
  Binding of peptide-HLA-E complexes to CD94/NKG2A normalized to a theoretical Rmax: 0.686
[3]; CD94/NKG2A analyte concentration 102.400 μM
  Binding of peptide-HLA-E complexes to CD94/NKG2A normalized to a theoretical Rmax: 0.719
[4]; CD94/NKG2C concentration 0 μM
  binding of peptide-HLA-E complex to CD94/NKG2C normalized to a fitted Rmax: −0.007
[4]; CD94/NKG2C concentration 0.1 μM
  binding of peptide-HLA-E complex to CD94/NKG2C normalized to a fitted Rmax: 0.007
[4]; CD94/NKG2C concentration 0.2 μM
  binding of peptide-HLA-E complex to CD94/NKG2C normalized to a fitted Rmax: 0.017
[4]; CD94/NKG2C concentration 0.4 μM
  binding of peptide-HLA-E complex to CD94/NKG2C normalized to a fitted Rmax: 0.038
[4]; CD94/NKG2C concentration 0.8 μM
  binding of peptide-HLA-E complex to CD94/NKG2C normalized to a fitted Rmax: 0.076
[4]; CD94/NKG2C concentration 1.6 μM
  binding of peptide-HLA-E complex to CD94/NKG2C normalized to a fitted Rmax: 0.144
[4]; CD94/NKG2C concentration 3.2 μM
  binding of peptide-HLA-E complex to CD94/NKG2C normalized to a fitted Rmax: 0.246
[4]; CD94/NKG2C concentration 6.4 μM
  binding of peptide-HLA-E complex to CD94/NKG2C normalized to a fitted Rmax: 0.394
[4]; CD94/NKG2C concentration 12.8 μM
  binding of peptide-HLA-E complex to CD94/NKG2C normalized to a fitted Rmax: 0.564
[4]; CD94/NKG2C concentration 25.6 μM
  binding of peptide-HLA-E complex to CD94/NKG2C normalized to a fitted Rmax: 0.723
[4]; CD94/NKG2C concentration 51.2 μM
  binding of peptide-HLA-E complex to CD94/NKG2C normalized to a fitted Rmax: 0.832
[4]; CD94/NKG2C concentration 102.4 μM
  binding of peptide-HLA-E complex to CD94/NKG2C normalized to a fitted Rmax: 0.912
[4]; CD94/NKG2C analyte concentration 0 μM
  Binding of peptide-HLA-E complexes to CD94/NKG2C normalized to a theoretical Rmax: −0.004
[4]; CD94/NKG2C analyte concentration 0.1 μM
  Binding of peptide-HLA-E complexes to CD94/NKG2C normalized to a theoretical Rmax: 0.004
[4]; CD94/NKG2C analyte concentration 0.2 μM
  Binding of peptide-HLA-E complexes to CD94/NKG2C normalized to a theoretical Rmax: 0.010
[4]; CD94/NKG2C analyte concentration 0.4 μM
  Binding of peptide-HLA-E complexes to CD94/NKG2C normalized to a theoretical Rmax: 0.023
[4]; CD94/NKG2C analyte concentration 0.8 μM
  Binding of peptide-HLA-E complexes to CD94/NKG2C normalized to a theoretical Rmax: 0.047
[4]; CD94/NKG2C analyte concentration 1.6 μM
  Binding of peptide-HLA-E complexes to CD94/NKG2C normalized to a theoretical Rmax: 0.088
[4]; CD94/NKG2C analyte concentration 3.2 μM
  Binding of peptide-HLA-E complexes to CD94/NKG2C normalized to a theoretical Rmax: 0.151
[4]; CD94/NKG2C analyte concentration 6.4 μM
  Binding of peptide-HLA-E complexes to CD94/NKG2C normalized to a theoretical Rmax: 0.242
[4]; CD94/NKG2C analyte concentration 12.8 μM
  Binding of peptide-HLA-E complexes to CD94/NKG2C normalized to a theoretical Rmax: 0.346
[4]; CD94/NKG2C analyte concentration 25.6 μM
  Binding of peptide-HLA-E complexes to CD94/NKG2C normalized to a theoretical Rmax: 0.444
[4]; CD94/NKG2C analyte concentration 51.2 μM
  Binding of peptide-HLA-E complexes to CD94/NKG2C normalized to a theoretical Rmax: 0.511
[4]; CD94/NKG2C analyte concentration 102.4 μM
  Binding of peptide-HLA-E complexes to CD94/NKG2C normalized to a theoretical Rmax: 0.560
[5]
  HLA-E surface expression stabilization strength (in words): moderate
[5]; Trial 1
  HLA-E surface expression stability (GeoMFI): 2461 GeoMFI
[5]; Trial 2
  HLA-E surface expression stability (GeoMFI): 1755 GeoMFI
[5]; Trial 3
  HLA-E surface expression stability (GeoMFI): 2273 GeoMFI
[5]; Trial 4
  HLA-E surface expression stability (GeoMFI): 2496 GeoMFI
[5]; approximate value
  HLA-E surface expression stabilization strength, approximate GeoMFI: approximately 2×10^3 GeoMFI

Source: patent US20240092835A1, “NOVEL PEPTIDES CAPABLE OF ALTERING NK CELL ACTIVITY” (Massachusetts Institute of Technology, priority 2022, published 2024)
